Results from ChEMBL document CHEMBL4371010, “Thermodynamics of DNA Minor Groove Binders” (2019).
Converted amounts (≈) assume the structure as drawn.

Experiments:
Staphylococcus aureus = experiment: Antibacterial activity against methicillin-resistant Staphylococcus aureus; assay type: functional
Clostridioides difficile = experiment: […] activity against Clostridium difficile; assay type: functional

Compound | MIC (Staphylococcus aureus) | MIC (Clostridioides difficile)
COc1cccc(C(=O)Nc2cc(C(=O)Nc3cc(C(=O)Nc4cc(C(=O)NCCCN(C)C)n(C)c4)n(CCC(C)C)c3)n(C)c2)c1 | 2 µM (≈ 1.32 µg/mL) | –
CC1(C)S[C@@H]2[C@H](NC(=O)[C@H](N)c3ccc(O)cc3)C(=O)N2[C@H]1C(=O)O [AMOXICILLIN] | 16.1 µM (≈ 5.88 µg/mL) | –
Cn1cc(NC(=O)c2cc(NC(=O)c3ccc(/C=C/c4cnc5ccccc5c4)cc3)cn2C)cc1C(=O)NCCN1CCOCC1 [MGB-BP-3] | – | 1 µg/mL (≈ 1.58 µM)
CN[C@H](CC(C)C)C(=O)N[C@H]1C(=O)N[C@@H](CC(N)=O)C(=O)N[C@H]2C(=O)N[C@H]3C(=O)N[C@H](C(=O)N[C@H](C(=O)O)c4cc(O)cc(O)c4-c4cc3ccc4O)[C@H](O)c3ccc(c(Cl)c3)Oc3cc2cc(c3O[C@@H]2O[C@H](CO)[C@@H](O)[C@H](O)[C@H]2O[C@H]2C[C@](C)(N)[C@H](O)[C@H](C)O2)Oc2ccc(cc2Cl)[C@H]1O [VANCOMYCIN] | – | 1 µg/mL (≈ 0.69 µM)
